Source: paper PMC9022420 (Scientific Reports, 2022)

Legend:
pDNA (pUC18) = experiment: pDNA photocleavage, agarose gel electrophoresis; assay type: biochemical; conditions: 10 µM flavin, 15 min white LED, PBS 0.1% DMSO
Description: (§1) A 20 µL aliquot was taken after 15 min of white LED irradiation (1 × 10^5 lx). Prior to loading, 2 µL of 6X Orange-G loading dye in glycerol were added to the aliquot and mixed vigorously. The gel was electrophoresed at 80 V for 35 min with 1% agarose gels in 1X Tris–acetate-EDTA (TAE) buffer. Gels were then imaged in a Syngene G:BOX Gel Documentation System and band % quantification was performed using ImageJ Gel Analyzer.

[1] = system: ssRNA (EGFP-encoding mRNA, ~ 1 k nt); experiment: ssRNA photocleavage, agarose gel electrophoresis; assay type: biochemical; conditions: 10 µM flavin, 15 min white LED, PBS 0.1% DMSO
Description: as §1

WI-38 cells = experiment: Light-induced toxicity towards WI-38 cells (MTS); assay type: cell-based, human; conditions: 10 μM flavin, 15 min irradiation 1 × 10^5 lx
Description: An adapted method reported by Maisch et al. was used to conduct phototoxicity studies on human lung fibroblasts, WI-38[28]. Cells were seeded into 96-well plates containing 10,000 cells/well in 100 µL complete growth medium and cultured for 24 h at 37 °C and 5% CO2. […] The resulting mixtures were then incubated in the dark for 5 min and then either illuminated with 1 × 10^5 lx for 5, 10 or 15 min, or incubated further in the dark for 15 min (dark control). After irradiation, the flavin solutions were removed and 100 μL of DMEM with 10% FBS and without phenol red was added to each well and incubated over night at 37 °C and 5% CO2. Subsequently, 20 µL of MTS reagent was added into each well and incubated at 37 °C and 5% CO2 for 1–4 h and the absorbance of each well was measured at 490 nm using a plate reader. Control measurements included negative control untreated cells with light and in the dark containing 0.1% DMSO and cells treated with flavins for 15 min in the dark. All experiments were conducted in biological triplicates. The percentage cell viability was calculated according to Eq. (1).

Compound	% NC (nicked coiled pDNA after photocleavage) (pDNA (pUC18)) [%]	% cleaved ssRNA [1] [%]	reduction in cell viability (light-induced toxicity) (WI-38 cells)
CCCCCCCCn1c(=O)nc2n(CCNC(=N)N)c3cc(Br)c(Br)cc3nc-2c1=O [Flavin F4]	21	42	~ 20%
CCCCCCCCn1c(=O)nc2n(CCN)c3cc(C)c(C)cc3nc-2c1=O [Flavin F1]	–	12	no decrease in cell viability
CCCCCCCCn1c(=O)nc2n(CCN)c3cc(Br)c(Br)cc3nc-2c1=O [Flavin F3]	–	35	no decrease in cell viability
CCCCCCCCn1c(=O)nc2n(CCNC(=N)N)c3cc(C)c(C)cc3nc-2c1=O [Flavin F2]	39	46	~ 75%
